Data from US9511073B2, “Aromatic amides and uses thereof” (TAXIS Pharmaceuticals, Inc., priority 2011, dated 2016).
Values after ≈ are worked out from the molar mass of the structure shown.

Test system: Staphylococcus aureus (Isolate ID ATCC 29213)
Assay: Bacterial assay: MIC by broth microdilution or agar dilution (CLSI), S. aureus ATCC 29213
Format: cell-based
Settings: Staphylococcus aureus, ATCC29213, read-out: S. aureus MIC (μg/mL) Activity Range, S. aureus (ATCC29213)
How it was run: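 Activity is binned (A ≤0.25 μg/mL; B >0.25–1.0; C >1.0–16; D >16 μg/mL) from MICs determined per CLSI by broth microdilution or agar dilution, on S. aureus ATCC 29213 plus an FtsZ-G196A mutant strain.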

CCNC(=O)NCC(Oc1ccc(F)c(C(N)=O)c1F)c1nc(-c2ccc(C(F)(F)F)cc2)c(Br)o1 (stereo not drawn) [Compound 291, 3-(1-(5-bromo-4-(4-(trifluoromethyl)phenyl)oxazol-2-yl)-2-(3-ethylureido)ethoxy)-2,6-difluorobenzamide]
MIC: < 0.25 µg/mL

CN(CC(=O)OCC(Oc1ccc(F)c(C(N)=O)c1F)c1nc(-c2ccc(C(F)(F)F)cc2)c(Br)o1)C(=O)OC(C)(C)C (stereo not drawn) [Compound 61, 2-(5-bromo-4-(4-(trifluoromethyl)phenyl)oxazol-2-yl)-2-(3-carbamoyl-2,4-difluorophenoxy)ethyl 2-((tert-butoxycarbonyl)(methyl)amino)acetate]
MIC: 0.25 to 1 µg/mL (≈ 0.369 to 1.47 µM)

CCOc1ncc(-c2csc(C(C)Oc3ccc(F)c(C(N)=O)c3F)n2)s1 (stereo not drawn) [Compound 14]
MIC: < 0.25 µg/mL

CC(Oc1ccc(F)c(C(N)=O)c1F)c1nc(-c2ccc(C(F)(F)F)cc2)c(Cl)o1 (stereo not drawn) [Compound 32]
MIC: 0.25 to 1 µg/mL (≈ 0.56 to 2.24 µM)

C=CCOP(=O)(O)OCC(Oc1ccc(F)c(C(N)=O)c1F)c1nc(-c2ccc(C(F)(F)F)cc2)c(Br)o1 (stereo not drawn) [Compound 75, allyl (2-(5-bromo-4-(4-(trifluoromethyl)phenyl)oxazol-2-yl)-2-(3-carbamoyl-2,4-difluorophenoxy)ethyl) hydrogen phosphate]
MIC: > 16 µg/mL

CN(Cc1ccncn1)C(=O)OCC(Oc1ccc(F)c(C(N)=O)c1F)c1nc(-c2ccc(C(F)(F)F)cc2)c(Br)o1 (stereo not drawn) [Compound 197, 2-(5-bromo-4-(4-(trifluoromethyl)phenyl)oxazol-2-yl)-2-(3-carbamoyl-2,4-difluorophenoxy)ethyl methyl(pyrimidin-4-ylmethyl)carbamate]
MIC: 0.25 to 1 µg/mL (≈ 0.381 to 1.52 µM)

Cc1ccc(-c2nc(C(CO)Oc3ccc(F)c(C(N)=O)c3F)oc2Br)s1 (stereo not drawn) [Compound 244, 3-(1-(5-bromo-4-(5-methylthiophen-2-yl)oxazol-2-yl)-2-hydroxyethoxy)-2,6-difluorobenzamide]
MIC: 1 to 16 µg/mL (≈ 2.18 to 34.8 µM)

NC(=O)c1c(F)ccc(O[C@H](CO)c2nc(-c3ccc(F)cc3)co2)c1F [Compound 278B, (R)-2,6-difluoro-3-(1-(4-(4-fluorophenyl)oxazol-2-yl)-2-hydroxyethoxy)benzamide]
MIC: > 16 µg/mL

NC(=O)c1c(F)ccc(O[C@H](CO)c2nc(-c3ccc(C(F)(F)F)cc3)co2)c1F [Compound 272B, (R)-2,6-difluoro-3-(2-hydroxy-1-(4-(4-(trifluoromethyl)phenyl)oxazol-2-yl)ethoxy)benzamide]
MIC: 1 to 16 µg/mL (≈ 2.33 to 37.4 µM)

NC(=O)c1c(F)ccc(OC(CO)c2nc(-c3ccc(Br)s3)c(Br)o2)c1F (stereo not drawn) [Compound 237, 3-(1-(5-bromo-4-(5-bromothiophen-2-yl)oxazol-2-yl)-2-hydroxyethoxy)-2,6-difluorobenzamide]
MIC: 0.25 to 1 µg/mL (≈ 0.477 to 1.91 µM)

CS(=O)(=O)OCC(Oc1ccc(F)c(C(N)=O)c1F)c1nc(-c2ccc(Cl)cc2)c(Cl)o1 (stereo not drawn) [Compound 48, 2-(3-carbamoyl-2,4-difluorophenoxy)-2-(5-chloro-4-(4-chlorophenyl)oxazol-2-yl)ethyl methanesulfonate]
MIC: 1 to 16 µg/mL

NC(=O)c1c(F)ccc(OC(CO)c2nc(-c3ccc(OC(F)(F)F)cc3)c(Br)o2)c1F (stereo not drawn) [Compound 116, 3-(1-(5-bromo-4-(4-(trifluoromethoxy)phenyl)oxazol-2-yl)-2-hydroxyethoxy)-2,6-difluorobenzamide]
MIC: < 0.25 µg/mL

COc1ccc(-c2nc(C(CO)Oc3ccc(F)c(C(N)=O)c3F)oc2Br)nc1 (stereo not drawn) [Compound 238, 3-(1-(5-bromo-4-(5-methoxypyridin-2-yl)oxazol-2-yl)-2-hydroxyethoxy)-2,6-difluorobenzamide]
MIC: > 16 µg/mL

NC(=O)c1c(F)ccc(OC(CO)c2nc(-c3ccc(F)cc3F)co2)c1F (stereo not drawn) [Compound 226, 3-(1-(4-(2,4-difluorophenyl)oxazol-2-yl)-2-hydroxyethoxy)-2,6-difluorobenzamide]
MIC: > 16 µg/mL

NC(=O)c1c(F)ccc(OC(CO)c2nc(-c3ccc(Cl)cc3F)c(Br)o2)c1F (stereo not drawn) [Compound 235, 3-(1-(5-bromo-4-(4-chloro-2-fluorophenyl)oxazol-2-yl)-2-hydroxyethoxy)-2,6-difluorobenzamide]
MIC: < 0.25 µg/mL
